Values of other authors as cited in patent US20220313671A1 (Chiesi Farmaceutici S.p.A., priority 2011, published 2022).

SMILES: CCCC(=O)OCOC(=O)C1=C(C)NC(C)=C(C(=O)OC)C1c1cccc(Cl)c1Cl (stereo not drawn) [clevidipine]
- full offset of activity (rapid offset of activity): 5 to 15 min
- onset of activity (rapid onset of activity): 2 to 4 min
- return of blood pressure to pre-treatment levels (time after discontinuation of clevidipine): 5 to 15 min
